Results taken from patent publication US10357477B2, “Anticancer compounds” (REGENTS OF THE UNIVERSITY OF MINNESOTA, priority 2016, dated 2019).
Converted amounts (≈) assume the structure as drawn.

Key:
[1] = Caco-2 permeability assay; assay type: in vitro ADME; details: human, pH 7.4; for Papp A→B at 80 min: apical to basolateral; for Papp B→A at 80 min: basolateral to apical
Procedure: Cell Culture. The human colon adenocarcinoma cell line Caco-2 was purchased from ATCC (American Type Culture Collection, Manassas, Va.), and was cultured in a humidified atmosphere of 5% CO2 at 37° C. Caco-2 cells were cultured in DMEM with 10% FBS, 1% NEAA, 1% GlutaMax and 1% penicillin and streptomycin solution. The culture medium was changed every other day during cell growth and differentiation. On achieving 80-90% confluence, the cells were rinsed with pre-warm DPBS (pH 7.4) and split using trypsin. The cells were then seeded on membranes of Millipore Millicell-24 cell culture device. The transepithelial electrical resistance (TEER) were assessed to reflect membrane integrity using a Millicells® ERS-2 (Millipore, USA). The Caco-2 cell monolayers were used for transport experiments on day 21 post-seeding with TEER values >500 Ω·cm2. Bidirectional Transport Experiments. Before the transport experiments, the cell monolayer was washed three times with HBSS. Then, the plates were incubated in fresh permeability assay buffer (HBSS containing 10 mM glucose and 20 mM HEPES, pH 7.4) at 37° C. The experiments were conducted by spiking test compounds to either the apical (AP, 0.4 mL) or basolateral side (BL, 0.8 mL), while the receiving chamber contained the corresponding volume of pre-warmed permeability assay buffer. Every experiment was repeated in duplicate, and the plates were incubated in an orbital shaker at 37° C., 50 rpm/min. To assess the drug transport, at the incubation time of 20, 40, 60 and 80 min, aliquot was removed and was immediately replenished with an equal volume of permeability assay buffer. The samples were then subjected to LC/MS/MS analysis. The apparent permeability coefficient was indicated by the absorption rate constant Papp. It could be calculated as PBA (measured in BL to AP direction) or PAB (measured in AP to BL direction), using the equation of Papp=(dQ/dt)/(A×C0). dQ/dt is the rate at which the compound appears in the receiver chamber (nmol/s), A is the surface area of the filter membrane (0.7 cm2) and C0 is the initial concentration in the donor chamber (μM). Efflux ratio (ER) was calculated by the equation of ER=PBA/PAB, where PBA is the Papp value measured in BL to AP direction, and PAB is the Papp value measured in AP to BL direction.

[2] = Plasma stability assay, human plasma; assay type: in vitro ADME; details: 37° C.
Procedure: (§1) The plasma stability assay was performed in triplicate by incubating a compound in normal mouse and human plasma at 37° C. At 0, 1, 3, 6, and 24 h, aliquots of the plasma mixture were taken and quenched with 3 volumes of acetonitrile containing an appropriate internal standard. The samples were then vortexed and centrifuged at 14,000 rpm for 5 min. The supernatants were collected and analyzed by LC-MS/MS to determine the remaining percentage at various time points.
(§2) Quantification and analysis of compounds in biological samples were carried out on an AB Sciex QTrap 5500 mass spectrometer coupled with an Agilent 1260 Infinity HPLC. The chromatographic separation of compounds was achieved using a Phenomenex Kinetex C18 column (50×2.1 mm, 2.6 μm), and MS/MS analysis was conducted using an ESI ion source with MRM detection. The MS/MS detection parameters including declustering potential (DP), entrance potential (EP), collision energy (CE), and collision cell exit potential (CXP) were optimized for each compound.

[3] = Microsomal stability assay, human liver microsomes; assay type: in vitro ADME; details: pH 7.4; human liver microsomes 0.5 mg/mL, 1 mM NADPH, 1 μM compound; read-out: Microsomal Stability t1/2 Human
Procedure: (§3) The in vitro microsomal stability assay was conducted in triplicate in mouse and human liver microsomal systems. In a typical incubation, a compound (typically 1 μM final concentration) was spiked into the reaction mixture containing 0.5 mg/mL of liver microsomal protein and 1 mM of NADPH in 0.1 M potassium phosphate buffer (pH 7.4) at 37° C. At various time points, 1 volume of reaction aliquot was taken and quenched with 3 volumes of acetonitrile with an appropriate internal standard. The samples were then vortexed and centrifuged at 14,000 rpm for 5 min. The supernatants were collected and analyzed by LC-MS/MS to determine the in vitro metabolic half-life (t1/2) and intrinsic clearance (CLint). Verapamil was used as a positive control.
as §2

MIA PaCa-2 cells = experiment: Cell viability assay (MTT) in MIA PaCa-2 cells; assay type: cell-based; details: Homo sapiens, antiproliferative activity, 72 h
Outline: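 MIA PaCa-2 cells exposed 72 h at 37° C to 2-fold serial compound dilutions from 100 μM final, 0.5% DMSO, in triplicate. Viability by MTT (3 h), formazan read at 570 nm minus 650 nm; EC50 from curve fit.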

[4] = system: MCF10A cells (normal human mammary cells); experiment: Cell viability assay (MTT) in MCF10A cells; assay type: cell-based; details: MCF-10A, 72 h
Procedure: MCF10A cells are maintained in minimum essential medium (MEM) (Invitrogen 11095) supplemented with 10% FBS (Invitrogen 16000), 1% 10× non-essential amino acids (NEAA) (Invitrogen 11140), 1% Penicillin/Streptomycin (Invitrogen 15140), 1% GlutaMAX (Invitrogen 35050-061), 20 ng/mL EGF, […] hydrocortisone, 100 ng/mL cholera toxin, 10 μg/mL insulin.
Cells were plated in 96-well plates at 25×10^4 cells/ml. After 24 hours, compounds were added at 9, 3× dilutions in triplicate from 100 uM final concentration in the appropriate growth media. Plates were incubated for 72 hours at 37° C. in a 5% CO2/95% air humidified atmosphere after which time the media was removed and MTT was added in RPMI phenol red free media. The MTT was removed after 3 hours and formazan crystals were solubilized with 200 μL of isopropanol. Plates were read on a Molecular Devices SpectraMax i3 spectrophotometer at 570 nm for formazan and 690 nm for background subtraction. EC50 values were calculated by fitting the data in GraphPad Prism software.

[5] = Microsomal stability assay, mouse liver microsomes; assay type: in vitro ADME; details: pH 7.4; mouse liver microsomes 0.5 mg/mL, 1 mM NADPH, 1 μM compound; read-out: Microsomal Stability t1/2 Mouse
Procedure: as §3, §2

[6] = Plasma stability assay, mouse plasma; assay type: in vitro ADME; details: 37° C.
Procedure: as §1, §2

[7] = Thermodynamic solubility assay; assay type: physicochemical; details: aqueous buffer, thermodynamic from solid, DPBS pH=7.4, 48 h, ambient temperature
Procedure: Briefly, a saturated solution was made by adding DPBS to the solid compound. The mixture was shaken at 200 rpm for 48 h in a MaxQ 6000 orbital shaker at ambient temperature to allow equilibrium between the solid and dissolved compound. The suspension was then filtered through a 0.45 μm PVDF syringe filter and the filtrate was collected for analysis using UV spectrometry (SpectraMax M5e, Molecular Devices) at λ=240 nm.

| Structure (SMILES) | Papp A→B at 80 min [1] | Papp B→A at 80 min [1] | Plasma Stability (% remaining, 6 h/24 h) Human ([2]; 6 h) | Plasma Stability (% remaining, 6 h/24 h) Human ([2]; 24 h) | half-life at 1 μM [3] | EC50 (MIA PaCa-2 cells) | EC50 [4] | half-life at 1 μM [5] | Plasma Stability (% remaining, 6 h/24 h) Mouse ([6]; 6 h) | Plasma Stability (% remaining, 6 h/24 h) Mouse ([6]; 24 h) | solubility at 48 h [7] |
| --- | --- | --- | --- | --- | --- | --- | --- | --- | --- | --- | --- |
| CNC(=O)c1cccc(Cn2nc(C)c(NC(=O)c3ccc(COc4ccc(C(F)(F)F)cc4C)cc3)c2C)c1 [Compound D10, 3-((3,5-Dimethyl-4-(4-((2-methyl-4-(trifluoromethyl)phenoxy)-methyl)benzamido)-1H-pyrazol-1-yl)methyl)-N-methylbenzamide] | 3.72 ×10⁻⁶ cm/s | 11.2 ×10⁻⁶ cm/s | 98% | 100% | 53 min | 0.62 µM | 4.8 µM | 53 min | 88% | 93% | 166 ± 2 µM (≈ 91.4 µg/mL) |
| CC(=O)Nc1cccc(Cn2nc(C)c(NC(=O)c3ccc(COc4ccc(C(F)(F)F)cc4)cc3)c2C)c1 [Compound D11, N-(1-(3-Acetamidobenzyl)-3,5-dimethyl-1H-pyrazol-4-yl)-4-((4-(trifluoromethyl)phenoxy)methyl)benzamide] |  |  | 96% | 94% | 8.3 min | 0.87 µM | 8.6 µM | 7.4 min | 2.1% | 0.1% |  |
| CC(=O)Nc1cccc(Cn2nc(C)c(NC(=O)c3ccc(COc4ccc(C(F)(F)F)cc4C)cc3)c2C)c1 [Compound D12, N-(1-(3-Acetamidobenzyl)-3,5-dimethyl-1H-pyrazol-4-yl)-4-((2-methyl-4-(trifluoromethyl)phenoxy)methyl)benzamide] |  |  | 92% | 95% | 14 min | 1.1 µM | 6.6 µM | 9.7 min | 1.6% | 0.1% |  |
| CNC(=O)c1cccc(Cn2nc(C)c(NC(=O)c3ccc(COc4ccc(C(F)(F)F)cc4)cc3)c2C)n1 [Compound E1a, 6-((3,5-Dimethyl-4-(4-((4-(trifluoromethyl)phenoxy)methyl)-benzamido)-1H-pyrazol-1-yl)methyl)-N-methylpicolinamide] | 24.5 ×10⁻⁶ cm/s | 21 ×10⁻⁶ cm/s |  | —/100% | 47 min | 0.48 µM | 7.8 µM | 65 min |  | —/99% |  |
| CNC(=O)c1cc(Cn2nc(C)c(NC(=O)c3ccc(COc4ccc(C(F)(F)F)cc4)cc3)c2C)ccn1 [Compound E2a, 4-((3,5-Dimethyl-4-(4-((4-(trifluoromethyl)phenoxy)methyl)benzamido)-1H-pyrazol-1-yl)methyl)-N-methylpicolinamide] | 5.02 ×10⁻⁶ cm/s | 5.69 ×10⁻⁶ cm/s |  | —/98% | 112 min | 0.85 µM | 8.3 µM | 64 min |  | —/91% |  |
| CNC(=O)c1cc(Cn2nc(C)c(NC(=O)c3ccc(COc4ccc(C(F)(F)F)cc4C)cc3)c2C)ccn1 [Compound E2b, 4-((3,5-Dimethyl-4-(4-((2-methyl-4-(trifluoromethyl)phenoxy)methyl)benzamido)-1H-pyrazol-1-yl)methyl)-N-methylpicolinamide] | 8.34 ×10⁻⁶ cm/s | 5.96 ×10⁻⁶ cm/s |  | —/100% | 89 min | 0.33 µM | 7.4 µM | 89 min |  | —/84% | 211 ± 5 µM (≈ 116 µg/mL) |
